The text below walks through data of US10829473B2, “Modulators of the cystic fibrosis transmembrane conductance regulator protein and methods of use” (AbbVie Overseas S.Á.R.L., priority 2017, dated 2020).

The structures appear in SMILES notation. Where two headings read alike, the source gives them in different places.

This test addresses T1, F508delCFTR (Homo sapiens, UniProt P13569, DEL508-508).
T1 construct: expressed in transfected cells; host or cells: CFBE41o- human lung derived epithelial cells (CFBE41o-F508delCFTR-HRP), doxycycline-inducible
Kind of test: Cell Surface Expression-Horse Radish Peroxidase (CSE-HRP) Assay.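 As to EC50 (with co-corrector): co-corrector chromenyl benzoic acid corrector at 2 or 3 µM.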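 As to Maximum % activity (without co-corrector): % of on-plate positive control chromenyl benzoic acid corrector at 2 or 3 µM.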 In kind it is cell-based. As to conditions: for Maximum % activity (with co-corrector) / Emax: maximum at any tested concentration; for Emax: read-out: Maximum % activity (without co-corrector). In short, it runs like this:
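Corrector compounds were given as 8-point 3-fold series from 20 or 30 μM, with or without a 2 μM co-corrector, for 18-24 h at 33 °C. Surface HRP was read by luminol luminescence as % of positive control; variable-Hill-slope sigmoidal fitting gave EC50 from triplicate plates.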

Setting [1] is: test compound alone, without co-corrector, read-out: EC50 (without co-corrector).
The mark [2] stands for this setting: with co-corrector, read-out: EC50 (with co-corrector).

T1 sequence (P13569 with tags, fused parts or gaps DEL508-508): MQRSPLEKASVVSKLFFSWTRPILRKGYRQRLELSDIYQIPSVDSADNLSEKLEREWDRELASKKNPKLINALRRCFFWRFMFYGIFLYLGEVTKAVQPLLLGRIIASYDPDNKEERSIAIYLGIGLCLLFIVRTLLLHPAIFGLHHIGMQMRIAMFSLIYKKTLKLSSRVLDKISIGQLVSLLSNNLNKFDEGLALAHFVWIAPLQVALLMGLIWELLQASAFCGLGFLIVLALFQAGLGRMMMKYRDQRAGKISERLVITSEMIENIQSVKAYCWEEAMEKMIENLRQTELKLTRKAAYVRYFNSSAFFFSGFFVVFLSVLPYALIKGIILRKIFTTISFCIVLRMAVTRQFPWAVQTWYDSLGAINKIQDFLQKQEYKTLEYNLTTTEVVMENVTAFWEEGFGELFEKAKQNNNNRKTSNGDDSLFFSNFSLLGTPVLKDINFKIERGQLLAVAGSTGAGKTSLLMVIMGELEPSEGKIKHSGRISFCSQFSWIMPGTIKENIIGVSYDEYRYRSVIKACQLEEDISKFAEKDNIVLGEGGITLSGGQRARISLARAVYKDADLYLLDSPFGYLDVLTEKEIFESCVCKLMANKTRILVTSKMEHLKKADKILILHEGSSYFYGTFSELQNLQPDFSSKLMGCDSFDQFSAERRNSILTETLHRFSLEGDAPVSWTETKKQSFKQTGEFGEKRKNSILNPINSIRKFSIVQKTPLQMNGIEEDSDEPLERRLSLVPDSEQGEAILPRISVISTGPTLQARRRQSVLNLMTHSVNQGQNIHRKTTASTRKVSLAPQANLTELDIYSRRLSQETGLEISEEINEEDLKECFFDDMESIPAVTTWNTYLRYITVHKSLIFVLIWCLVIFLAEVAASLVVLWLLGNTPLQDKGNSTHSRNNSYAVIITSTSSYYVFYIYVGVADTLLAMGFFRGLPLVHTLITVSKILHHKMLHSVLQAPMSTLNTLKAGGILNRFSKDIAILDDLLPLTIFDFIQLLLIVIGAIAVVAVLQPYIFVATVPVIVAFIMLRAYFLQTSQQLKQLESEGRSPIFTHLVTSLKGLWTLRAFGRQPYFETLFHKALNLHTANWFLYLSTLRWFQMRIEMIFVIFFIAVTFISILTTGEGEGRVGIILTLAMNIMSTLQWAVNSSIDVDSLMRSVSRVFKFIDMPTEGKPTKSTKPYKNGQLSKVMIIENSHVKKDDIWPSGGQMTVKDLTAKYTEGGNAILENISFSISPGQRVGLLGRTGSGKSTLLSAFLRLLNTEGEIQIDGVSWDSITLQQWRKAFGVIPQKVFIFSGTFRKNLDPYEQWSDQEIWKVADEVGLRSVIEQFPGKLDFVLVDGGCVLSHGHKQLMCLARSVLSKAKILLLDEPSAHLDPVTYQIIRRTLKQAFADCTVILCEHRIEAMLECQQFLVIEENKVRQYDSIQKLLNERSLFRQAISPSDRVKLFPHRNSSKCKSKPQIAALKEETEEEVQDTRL

The EC50 is the concentration needed to bring the measured effect to its halfway point. `O=C(NS(=O)(=O)c1ccc(Cl)cc1)C1(c2ccc(Cl)cc2Cl)CC1` [Example III-9, N-(4-chlorobenzene-1-sulfonyl)-1-(2,4-dichlorophenyl)cyclopropane-1-carboxamide]: the concentration giving a half-maximal response (EC50) is, setting by setting: under setting [1], more than 10 µM; under setting [2], 3 to 10 µM. Also, under “with co-corrector”, the “Maximum % activity (with co-corrector)” value is “+ (<150)”. The Emax (without co-corrector) is less than 50%.
Taken in the same sequence, the figures for `O=C(NS(=O)(=O)c1ccc(Cl)cc1)C1(c2cccc(Cl)c2)CC1` [Example III-10, N-(4-chlorobenzene-1-sulfonyl)-1-(3-chlorophenyl)cyclopropane-1-carboxamide] were more than 10 µM, more than 10 µM, “+ (<150)” and less than 50%.
For `COC(=O)c1csc(S(=O)(=O)NC(=O)C2(c3ccc(Cl)cc3Cl)CC2)c1OC` [Example III-11, methyl 5-{[1-(2,4-dichlorophenyl)cyclopropane-1-carbonyl]sulfamoyl}-4-methoxythiophene-3-carboxylate], in that order: more than 10 µM, more than 10 µM, “+ (<150)” and less than 50%.
As to `Cc1noc(C)c1S(=O)(=O)NC(=O)C1(c2ccc(Cl)cc2Cl)CC1` [Example III-12, 1-(2,4-dichlorophcnyl)-N-(3,5-dimethyl-1,2-oxazole-4-sulfonyl)cyclopropane-1-carboxamide], the EC50 was more than 10 µM under setting [1] and 3 to 10 µM under setting [2]. In addition, the “Maximum % activity (with co-corrector)” value (with co-corrector) was “++ (≥150 and <350)”. For the same compound, the Emax (without co-corrector) is less than 50%.
For `O=C(NS(=O)(=O)c1ccccc1OC(F)(F)F)C1(c2ccc(Cl)cc2Cl)CC1` [Example III-13, 1-(2,4-dichlorophenyl)-N-[2-(trifluoromethoxy)benzene-1-sulfonyl]cyclopropane-1-carboxamide], the EC50 under setting [1] fell in the range of 3 to 10 µM and the EC50 under setting [2] was less than 3 µM. In addition, the “Maximum % activity (with co-corrector)” value (with co-corrector) is “++ (≥150 and <350)”. Besides, the Emax (without co-corrector) was less than 50%.
For the compound `O=C(NS(=O)(=O)c1ccc(OC(F)(F)F)cc1)C1(c2ccc(Cl)cc2Cl)CC1` [Example III-14, 1-(2,4-dichlorophenyl)-N-[4-(trifluoromethoxy)benzene-1-sulfonyl]cyclopropane-1-carboxamide], the 50% effective concentration (EC50) reads like this: under setting [1], more than 10 µM; under setting [2], more than 10 µM. Besides, the “Maximum % activity (with co-corrector)” value (with co-corrector) is “+ (<150)”. Besides, the Emax (without co-corrector) is less than 50%.
As for `O=C(NS(=O)(=O)c1cccc(C(F)(F)F)c1)C1(c2ccc(Cl)cc2Cl)CC1` [Example III-15, 1-(2,4-dichlorophenyl)-N-[3-(trifluoromethyl)benzene-1-sulfonyl]cyclopropane-1-carboxamide], the EC50 under setting [1] is 3 to 10 µM and the EC50 under setting [2] lay within 3 to 10 µM. In addition, where the note is “with co-corrector”, the “Maximum % activity (with co-corrector)” value was “++ (≥150 and <350)”. Further, where the note is “without co-corrector”, the Emax is less than 50%.
Regarding `O=C1CCCN1c1ccc(S(=O)(=O)NC(=O)C2(c3ccc(Cl)cc3Cl)CC2)cc1` [Example III-16, 1-(2,4-dichlorophenyl)-N-[4-(2-oxopyrrolidin-1-yl)benzene-1-sulfonyl]cyclopropane-1-carboxamide], the EC50 by setting is: under setting [1], more than 10 µM; under setting [2], more than 10 µM. Besides, the “Maximum % activity (with co-corrector)” value (with co-corrector) is “+ (<150)”. The Emax (without co-corrector) was less than 50%.
Take `O=C(NS(=O)(=O)c1ccc(-c2ccno2)s1)C1(c2ccc(Cl)cc2Cl)CC1` [Example III-17, 1-(2,4-dichlorophenyl)-N-[5-(1,2-oxazol-5-yl)thiophene-2-sulfonyl]cyclopropane-1-carboxamide]: the EC50 is, setting by setting: under setting [1], more than 10 µM; under setting [2], more than 10 µM. Further, the “Maximum % activity (with co-corrector)” value (with co-corrector) is “+ (<150)”. For the same compound, the Emax (without co-corrector) is less than 50%.
Consider `CN(C(=O)C1(c2ccc(Cl)cc2Cl)CC1)S(=O)(=O)c1ccc(Cl)cc1` [Example III-19, N-(4-chlorobenzene-1-sulfonyl)-1-(2,4-dichlorophenyl)-N-methylcyclopropane-1-carboxamide], for which the concentration giving a half-maximal response (EC50) under setting [1] was more than 10 µM and the concentration giving a half-maximal response (EC50) under setting [2] is more than 10 µM. Also, for the setting “with co-corrector”, the “Maximum % activity (with co-corrector)” value is “+ (<150)”. The Emax (without co-corrector) was less than 50%.
`CC(C)Oc1ccc(S(=O)(=O)NC(=O)C2(c3ccc(Cl)cc3Cl)CC2)cc1` [Example III-20, 1-(2,4-dichlorophenyl)-N-{4-[(propan-2-yl)oxy]benzene-1-sulfonyl}cyclopropane-1-carboxamide]: the EC50 under setting [1] was more than 10 µM and the concentration for a half-maximal effect (EC50) under setting [2] is more than 10 µM. In addition, under “with co-corrector”, the “Maximum % activity (with co-corrector)” value is on record as “+ (<150)”. The Emax (without co-corrector) was less than 50%.
For the compound `O=C(OCc1ccccc1)N1CCC(S(=O)(=O)NC(=O)C2(c3ccc(Cl)cc3Cl)CC2)CC1` [Example III-22, benzyl 4-{[1-(2,4-dichlorophenyl)cyclopropane-1-carbonyl]sulfamoyl}piperidine-1-carboxylate], the EC50 reads like this: under setting [1], more than 10 µM; under setting [2], 3 to 10 µM. The “Maximum % activity (with co-corrector)” value (with co-corrector) is “++ (≥150 and <350)”. For the same compound, the Emax (without co-corrector) is less than 50%.
For the compound `O=C(NS(=O)(=O)c1ccccc1Cl)C1(c2cccc(Cl)c2)CC1` [Example III-23, N-(2-chlorobenzene-1-sulfonyl)-1-(3-chlorophenyl)cyclopropane-1-carboxamide], the concentration giving a half-maximal response (EC50) reads like this: under setting [1], 3 to 10 µM; under setting [2], 3 to 10 µM. Moreover, the “Maximum % activity (with co-corrector)” value (with co-corrector) is “+++ (≥350)”. The Emax (without co-corrector) was in the range of 50 to 150%.
With `COc1ccc(S(=O)(=O)NC(=O)C2(c3ccc(Cl)cc3Cl)CC2)cc1` [Example III-24, 1-(2,4-dichlorophenyl)-N-(4-methoxybenzene-1-sulfonyl)cyclopropane-1-carboxamide], the EC50 is, setting by setting: under setting [1], more than 10 µM; under setting [2], more than 10 µM. Also, the “Maximum % activity (with co-corrector)” value (with co-corrector) is “++ (≥150 and <350)”. In addition, the Emax (without co-corrector) is less than 50%.
For `COc1ccc(S(=O)(=O)NC(=O)C2(c3ccc(Cl)cc3Cl)CC2)cc1OC` [Example III-25, 1-(2,4-dichlorophenyl)-N-(3,4-dimethoxybenzene-1-sulfonyl)cyclopropane-1-carboxamide], the EC50 under setting [1] is more than 10 µM and the EC50 under setting [2] was in the range of 3 to 10 µM. The “Maximum % activity (with co-corrector)” value (with co-corrector) is on record as “+ (<150)”. Also, for the setting “without co-corrector”, the Emax is less than 50%.
With `O=C(NS(=O)(=O)c1cccc(Cl)c1)C1(c2ccc(Cl)cc2Cl)CC1` [Example III-26, N-(3-chlorobenzene-1-sulfonyl)-1-(2,4-dichlorophenyl)cyclopropane-1-carboxamide], the EC50 is, setting by setting: under setting [1], 3 to 10 µM; under setting [2], 3 to 10 µM. Further, the “Maximum % activity (with co-corrector)” value (with co-corrector) was “++ (≥150 and <350)”. For the same compound, where the note is “without co-corrector”, the Emax was less than 50%.
Regarding `O=C(NS(=O)(=O)c1ccc2ccccc2c1)C1(c2ccc(Cl)cc2Cl)CC1` [Example III-27, 1-(2,4-dichlorophenyl)-N-(naphthalene-2-sulfonyl)cyclopropane-1-carboxamide], the EC50 is, setting by setting: under setting [1], more than 10 µM; under setting [2], more than 10 µM. In addition, the “Maximum % activity (with co-corrector)” value (with co-corrector) is recorded as “+ (<150)”. The Emax (without co-corrector) is less than 50%.
Turning to `O=C(NS(=O)(=O)C1CC1)C1(c2ccc(Cl)cc2Cl)CC1` [Example III-28, N-(cyclopropanesulfonyl)-1-(2,4-dichlorophenyl)cyclopropane-1-carboxamide], the EC50 is more than 10 µM under setting [1] and 3 to 10 µM under setting [2]. In addition, where the note is “with co-corrector”, the “Maximum % activity (with co-corrector)” value was “+ (<150)”. Further, under “without co-corrector”, the Emax was less than 50%.
Turning to `Cc1ccc(C2(C(=O)NS(=O)(=O)c3ccccc3)CC2)cc1` [Example III-29, N-(benzenesulfonyl)-1-(4-methylphenyl)cyclopropane-1-carboxamide], the EC50 reads like this: under setting [1], 3 to 10 µM; under setting [2], 3 to 10 µM. Besides, under “with co-corrector”, the “Maximum % activity (with co-corrector)” value is “++ (≥150 and <350)”. The Emax (without co-corrector) was less than 50%.
With `O=C(NS(=O)(=O)c1ccccc1)C1(c2ccccc2F)CC1` [Example III-30, N-(benzenesulfonyl)-1-(2-fluorophenyl)cyclopropane-1-carboxamide], the EC50 was more than 10 µM under setting [1] and 3 to 10 µM under setting [2]. In addition, where the note is “with co-corrector”, the “Maximum % activity (with co-corrector)” value was “++ (≥150 and <350)”. For the same compound, the Emax (without co-corrector) was less than 50%.
On to `O=C(NS(=O)(=O)c1ccccc1)C1(c2ccc(F)cc2)CC1` [Example III-31, N-(benzenesulfonyl)-1-(4-fluorophenyl)cyclopropane-1-carboxamide], for which the EC50 reads like this: under setting [1], more than 10 µM; under setting [2], 3 to 10 µM. The “Maximum % activity (with co-corrector)” value (with co-corrector) is “++ (≥150 and <350)”. The Emax (without co-corrector) was less than 50%.
Consider `O=C(NS(=O)(=O)c1ccccc1)C1(c2ccccc2Cl)CC1` [Example III-32, N-(benzenesulfonyl)-1-(2-chlorophenyl)cyclopropane-1-carboxamide], for which the EC50 under setting [1] was in the range of 3 to 10 µM and the EC50 under setting [2] fell in the range of 3 to 10 µM. Besides, the “Maximum % activity (with co-corrector)” value (with co-corrector) was “++ (≥150 and <350)”. In addition, the Emax (without co-corrector) was less than 50%.
On to `O=C(NS(=O)(=O)c1ccccc1)C1(c2ccc(Cl)cc2)CC1` [Example III-33, N-(benzenesulfonyl)-1-(4-chlorophenyl)cyclopropane-1-carboxamide], for which the EC50 under setting [1] is 3 to 10 µM and the EC50 under setting [2] was in the range of 3 to 10 µM. For the setting “with co-corrector”, the “Maximum % activity (with co-corrector)” value is “++ (≥150 and <350)”. The Emax (without co-corrector) was less than 50%.
In the case of `O=C(NS(=O)(=O)c1ccccc1)C1(c2ccc(Cl)c(Cl)c2)CC1` [Example III-34, N-(benzenesulfonyl)-1-(3,4-dichlorophenyl)cyclopropane-1-carboxamide], the EC50 is, setting by setting: under setting [1], more than 10 µM; under setting [2], more than 10 µM. Moreover, the “Maximum % activity (with co-corrector)” value (with co-corrector) was “++ (≥150 and <350)”. Also, where the note is “without co-corrector”, the Emax was less than 50%.
